Reference: PubChem BioAssay (NCI)
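The compound was tested at five concentrations on cells cultured in 96-well plates, with a 48-hour exposure period. GI50: concentration for 50% inhibition of growth. TGI marks complete inhibition of growth.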

Legend:
Assay in all cases: NCI-60 cell line screen, 48 h
[1] = tested on: TK-10 renal
[2] = tested on: 786-0 renal
[3] = tested on: SW-620 colon
[4] = tested on: NCI/ADR-RES ovarian
[5] = tested on: SK-MEL-5 melanoma
[6] = tested on: OVCAR-4 ovarian
[7] = tested on: HCC-2998 colon
[8] = tested on: HCT-15 colon
[9] = tested on: BT-549 breast
[10] = tested on: MOLT-4 leukemia
[11] = tested on: A549 NSCLC
[12] = tested on: CAKI-1 renal
[13] = tested on: MCF7 breast
[14] = tested on: SK-MEL-2 melanoma
[15] = tested on: MALME-3M melanoma
[16] = tested on: OVCAR-5 ovarian
[17] = tested on: OVCAR-3 ovarian
[18] = tested on: K-562 leukemia
[19] = tested on: SF-268 CNS
[20] = tested on: HOP-92 NSCLC
[21] = tested on: PC-3 prostate
[22] = tested on: MDA-MB-231 breast
[23] = tested on: HL-60(TB) leukemia
[24] = tested on: M14 melanoma
[25] = tested on: SK-OV-3 ovarian
[26] = tested on: NCI-H226 lung
[27] = tested on: RPMI-8226 leukemia
[28] = tested on: SNB-19 CNS
[29] = tested on: HS 578T breast
[30] = tested on: SR leukemia
[31] = tested on: DU-145 prostate
[32] = tested on: UO-31 renal
[33] = tested on: UACC-62 melanoma
[34] = tested on: COLO 205 colon
[35] = tested on: NCI-H522 lung
[36] = tested on: SF-295 CNS
[37] = tested on: EKVX NSCLC
[38] = tested on: CCRF-CEM leukemia
[39] = tested on: MDA-MB-435
[40] = tested on: SK-MEL-28 melanoma
[41] = tested on: T-47D breast
[42] = tested on: U251 CNS
[43] = tested on: HOP-62 NSCLC
[44] = tested on: IGROV1 ovarian
[45] = tested on: SF-539 CNS
[46] = tested on: RXF 393 renal
[47] = tested on: HCT-116 colon
[48] = tested on: KM12 colon
[49] = tested on: SNB-75 CNS
[50] = tested on: SN12C renal
[51] = tested on: NCI-H460 lung
[52] = tested on: OVCAR-8 ovarian
[53] = tested on: LOX IMVI melanoma
[54] = tested on: ACHN renal
[55] = tested on: HT29 colon
[56] = tested on: UACC-257 melanoma
[57] = tested on: A498 renal

Work on `O=C(Nc1ccc(Cl)c(C(F)(F)F)c1)Nc1ccc2c(ccn2C(=O)c2cccc(F)c2)c1` yielded a GI50 [1] of 2.91 µM, a TGI [1] of 36.5 µM and a GI50 [2] of 2.63 µM. For the same compound, the TGI [2] was 11.1 µM, the GI50 [3] was 3.5 µM and the TGI [3] was 35.8 µM. For the same compound, the GI50 [4] was 2.5 µM, the TGI [4] was 7.25 µM and the GI50 [5] was 2.4 µM. For the same compound, the TGI [5] was 6.64 µM, the GI50 [6] was 2.98 µM and the TGI [6] was > 100 µM. The GI50 [7] was 2.49 µM, the TGI [7] was 9.04 µM and the GI50 [8] was 2.37 µM. For the same compound, the TGI [8] was 9.7 µM, the GI50 [9] was 2.61 µM and the TGI [9] was 8.98 µM. For the same compound, the GI50 [10] was 3.4 µM, the TGI [10] was > 100 µM and the GI50 [11] was 2.9 µM. It also gave a TGI [11] of 22.7 µM, a GI50 [12] of 2.16 µM and a TGI [12] of 9.07 µM. The GI50 [13] was 2.12 µM, the TGI [13] was 7.66 µM and the GI50 [14] was 2.36 µM. For the same compound, the TGI [14] was 6.89 µM, the GI50 [15] was 1.92 µM and the TGI [15] was 5.87 µM. It also gave a GI50 [16] of 4.86 µM, a TGI [16] of 38.9 µM and a GI50 [17] of 2.16 µM. For the same compound, the TGI [17] was 6.2 µM, the GI50 [18] was 3.15 µM and the TGI [18] was 16.4 µM. For the same compound, the GI50 [19] was 3.43 µM, the TGI [19] was > 100 µM and the GI50 [20] was 2.07 µM. The TGI [20] was 5.77 µM, the GI50 [21] was 2.92 µM and the TGI [21] was 33.5 µM. For the same compound, the GI50 [22] was 2.91 µM, the TGI [22] was 11 µM and the GI50 [23] was 2.33 µM. For the same compound, the TGI [23] was 7.82 µM, the GI50 [24] was 3.22 µM and the TGI [24] was 16.8 µM. For the same compound, the GI50 [25] was 2.79 µM, the TGI [25] was 8.99 µM and the GI50 [26] was 2.46 µM. It also gave a TGI [26] of 7.5 µM, a GI50 [27] of 2.78 µM and a TGI [27] of 10.9 µM. The GI50 [28] was 3.18 µM, the TGI [28] was 14.1 µM and the GI50 [29] was 2.8 µM. It also gave a TGI [29] of 8.55 µM, a GI50 [30] of 2.13 µM and a TGI [30] of 9.12 µM. The GI50 [31] was 3.5 µM, the TGI [31] was 48.8 µM and the GI50 [32] was 1.7 µM. For the same compound, the TGI [32] was 4.42 µM, the GI50 [33] was 2.53 µM and the TGI [33] was 15.3 µM. For the same compound, the GI50 [34] was 2.25 µM, the TGI [34] was 5.57 µM and the GI50 [35] was 2.42 µM. The TGI [35] was 7.67 µM, the GI50 [36] was 1.93 µM and the TGI [36] was 4.76 µM. It also gave a GI50 [37] of 2.2 µM, a TGI [37] of 7.8 µM and a GI50 [38] of 3.78 µM. The TGI [38] was > 100 µM, the GI50 [39] was 2.84 µM and the TGI [39] was 14.1 µM. It also gave a GI50 [40] of 3.37 µM, a TGI [40] of 19.6 µM and a GI50 [41] of 2.53 µM. For the same compound, the TGI [41] was 9.11 µM, the GI50 [42] was 3.01 µM and the TGI [42] was 11.4 µM. It also gave a GI50 [43] of 2.45 µM, a TGI [43] of 7.81 µM and a GI50 [44] of 2.75 µM. It also gave a TGI [44] of 10.6 µM, a GI50 [45] of 2.71 µM and a TGI [45] of 8.26 µM. The GI50 [46] was 1.74 µM, the TGI [46] was 4.08 µM and the GI50 [47] was 3 µM. It also gave a TGI [47] of 10.6 µM, a GI50 [48] of 2.83 µM and a TGI [48] of 12 µM. It also gave a GI50 [49] of 1.9 µM, a TGI [49] of 9.11 µM and a GI50 [50] of 3.1 µM. The TGI [50] was 15.8 µM, the GI50 [51] was 2.8 µM and the TGI [51] was 10 µM. For the same compound, the GI50 [52] was 3.15 µM, the TGI [52] was 17.9 µM and the GI50 [53] was 1.43 µM. The TGI [53] was 3.28 µM, the GI50 [54] was 2.56 µM and the TGI [54] was 7.47 µM. The GI50 [55] was 3.16 µM, the TGI [55] was 50.8 µM and the GI50 [56] was 2.44 µM. It also gave a TGI [56] of 7.74 µM, a GI50 [57] of 2.67 µM and a TGI [57] of 9.86 µM.
